Laboratory results as given in ChEMBL document CHEMBL1135152, “Design, synthesis, and SAR of monobenzamidines and aminoisoquinolines as factor Xa inhibitors” (Bioorg Med Chem Lett, 2002).

Tests used:
[1] = Bioavailability in rat; format: ADME, organism-based; details: in vivo
[2] = target: T1, Coagulation factor X (Homo sapiens, UniProt P00742); test: Tested in vitro for the inhibitory activity against Coagulation factor Xa
[3] = tested on: Oryctolagus cuniculus; test: Tested for inhibition of thrombosis in rabbit deep vein model after intravenous administration at dosage of 2 mg/kg; format: functional
[4] = target: Serine protease 1 (Homo sapiens, UniProt P07477); test: Tested in vitro for the inhibitory activity against trypsin
[5] = target: Prothrombin (Homo sapiens, UniProt P00734); test: Tested in vitro for the inhibitory activity against thrombin
[6] = target: Kallikrein-1 (Homo sapiens, UniProt P06870); test: Tested in vitro for the inhibitory activity against kallikrein
[7] = target: Vitamin K-dependent protein C (Homo sapiens, UniProt P04070); test: Tested in vitro for the inhibitory activity against activated protein C (APC)
[8] = target: Tissue-type plasminogen activator (Homo sapiens, UniProt P00750); test: Tested in vitro for the inhibitory activity against Tissue plasminogen activator (tissue plasminogen activator)
[9] = target: Plasminogen (Homo sapiens, UniProt P00747); test: Tested in vitro for the inhibitory activity against plasmin
[10] = target: T1, Coagulation factor X; test: Tested in vitro for the inhibitory activity against Coagulation factor X
[11] = Bioavailability in rat was reported at the dose of 6 mg/kg in 25% PEG-300; format: ADME, organism-based; details: in vivo

T1 sequence (P00742 41-179 limits assumed): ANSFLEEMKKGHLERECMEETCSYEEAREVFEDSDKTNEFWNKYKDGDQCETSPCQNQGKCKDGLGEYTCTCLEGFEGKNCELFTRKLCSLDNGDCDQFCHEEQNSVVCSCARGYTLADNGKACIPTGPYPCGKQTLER
T1 sequence (P00742 235-488 limits assumed): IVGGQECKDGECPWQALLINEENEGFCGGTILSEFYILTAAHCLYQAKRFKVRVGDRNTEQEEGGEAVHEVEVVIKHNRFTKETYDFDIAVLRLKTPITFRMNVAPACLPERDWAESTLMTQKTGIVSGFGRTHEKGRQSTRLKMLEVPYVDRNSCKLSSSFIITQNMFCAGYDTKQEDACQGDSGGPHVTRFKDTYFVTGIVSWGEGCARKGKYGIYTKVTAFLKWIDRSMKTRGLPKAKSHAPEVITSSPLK
Sequence of Vitamin K-dependent protein C (P04070 43-197 limits assumed): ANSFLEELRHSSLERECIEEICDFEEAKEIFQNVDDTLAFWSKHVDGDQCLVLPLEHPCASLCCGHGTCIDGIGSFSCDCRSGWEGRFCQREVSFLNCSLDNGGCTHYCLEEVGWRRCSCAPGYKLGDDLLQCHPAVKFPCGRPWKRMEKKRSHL
Sequence of Vitamin K-dependent protein C (P04070 212-461 limits assumed): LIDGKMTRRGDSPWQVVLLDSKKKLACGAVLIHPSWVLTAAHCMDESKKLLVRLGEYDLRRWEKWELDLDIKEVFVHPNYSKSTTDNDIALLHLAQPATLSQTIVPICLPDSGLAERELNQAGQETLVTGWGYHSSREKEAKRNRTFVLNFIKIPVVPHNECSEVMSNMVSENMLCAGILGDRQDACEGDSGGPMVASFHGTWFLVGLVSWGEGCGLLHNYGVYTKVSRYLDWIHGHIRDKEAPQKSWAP
Sequence of Plasminogen (P00747 97-580 limits assumed): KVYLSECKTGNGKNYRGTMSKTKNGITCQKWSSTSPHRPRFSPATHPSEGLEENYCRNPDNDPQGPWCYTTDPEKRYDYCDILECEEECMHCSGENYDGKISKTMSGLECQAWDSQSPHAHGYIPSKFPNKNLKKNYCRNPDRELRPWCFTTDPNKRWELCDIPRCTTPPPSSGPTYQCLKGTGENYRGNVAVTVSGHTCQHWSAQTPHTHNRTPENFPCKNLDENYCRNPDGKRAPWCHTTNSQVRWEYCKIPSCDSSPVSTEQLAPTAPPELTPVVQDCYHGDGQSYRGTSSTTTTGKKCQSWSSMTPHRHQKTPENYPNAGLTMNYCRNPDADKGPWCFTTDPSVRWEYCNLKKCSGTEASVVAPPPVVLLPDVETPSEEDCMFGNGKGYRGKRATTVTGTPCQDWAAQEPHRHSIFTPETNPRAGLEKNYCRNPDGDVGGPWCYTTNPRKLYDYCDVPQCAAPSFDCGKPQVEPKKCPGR
Sequence of Plasminogen (P00747 581-810 limits assumed): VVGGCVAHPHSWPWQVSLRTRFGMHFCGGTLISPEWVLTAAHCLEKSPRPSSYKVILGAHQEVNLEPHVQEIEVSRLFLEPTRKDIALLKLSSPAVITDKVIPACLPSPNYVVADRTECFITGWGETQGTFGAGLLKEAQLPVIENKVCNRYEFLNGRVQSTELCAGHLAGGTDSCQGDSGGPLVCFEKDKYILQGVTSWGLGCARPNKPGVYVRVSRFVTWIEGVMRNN
Sequence of Serine protease 1 (P07477 whole entry): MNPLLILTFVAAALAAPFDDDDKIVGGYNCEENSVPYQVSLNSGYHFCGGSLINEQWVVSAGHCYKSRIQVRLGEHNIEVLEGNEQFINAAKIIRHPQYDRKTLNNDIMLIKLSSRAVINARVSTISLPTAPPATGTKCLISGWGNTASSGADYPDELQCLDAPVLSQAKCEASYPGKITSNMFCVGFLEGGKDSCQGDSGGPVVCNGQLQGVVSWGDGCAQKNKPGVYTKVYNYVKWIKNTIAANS
Sequence of Kallikrein-1 (P06870 whole entry): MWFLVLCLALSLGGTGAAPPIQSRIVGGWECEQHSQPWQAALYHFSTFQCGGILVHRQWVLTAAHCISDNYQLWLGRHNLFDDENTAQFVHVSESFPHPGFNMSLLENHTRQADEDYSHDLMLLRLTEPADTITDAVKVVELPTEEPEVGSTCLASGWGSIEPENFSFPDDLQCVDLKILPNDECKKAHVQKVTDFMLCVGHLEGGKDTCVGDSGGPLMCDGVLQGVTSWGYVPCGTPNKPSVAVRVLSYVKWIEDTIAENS
Sequence of Tissue-type plasminogen activator (P00750 whole entry): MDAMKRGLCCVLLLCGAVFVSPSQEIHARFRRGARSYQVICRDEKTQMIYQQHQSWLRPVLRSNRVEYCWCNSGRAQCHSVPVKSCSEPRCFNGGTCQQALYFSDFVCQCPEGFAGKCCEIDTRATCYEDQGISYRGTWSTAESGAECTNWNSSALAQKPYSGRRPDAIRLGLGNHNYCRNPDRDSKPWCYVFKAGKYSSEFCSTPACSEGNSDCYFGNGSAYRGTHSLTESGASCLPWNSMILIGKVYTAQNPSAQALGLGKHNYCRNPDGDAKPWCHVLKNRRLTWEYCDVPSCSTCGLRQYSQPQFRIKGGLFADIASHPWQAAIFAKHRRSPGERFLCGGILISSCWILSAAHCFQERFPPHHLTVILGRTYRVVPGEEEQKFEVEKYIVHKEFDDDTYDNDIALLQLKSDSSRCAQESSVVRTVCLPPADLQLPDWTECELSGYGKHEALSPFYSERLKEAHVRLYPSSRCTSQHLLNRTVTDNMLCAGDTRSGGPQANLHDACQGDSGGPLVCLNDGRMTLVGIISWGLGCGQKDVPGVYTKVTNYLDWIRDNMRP

Row | SMILES | IC50 [2] [nM] | other results
1 | N=C(N)c1cccc(Oc2ccc(C(=O)O)cc2NC(=O)c2ccc(-c3ccccc3S(N)(=O)=O)cc2)c1 |  | bioavailability [1]: 5.5%
2 | N=C(N)c1cccc(Oc2ccc(Cl)cc2C(=O)Nc2ccc(-c3ccccc3S(N)(=O)=O)cc2)c1 | 7.7 | 
3 | N=C(N)c1cccc(Oc2cc(Br)ccc2NC(=O)c2ccc(-c3ccccc3S(N)(=O)=O)cc2)c1 | 2.1 | 
4 | CC(=O)Nc1ccc(Oc2cccc(C(=N)N)c2)c(C(=O)Nc2ccc(-c3ccccc3S(N)(=O)=O)cc2)c1 | 7.7 | 
5 | N=C(N)c1cccc(OCCN(Cc2ccoc2)C(=O)c2ccc(-c3ccccc3S(N)(=O)=O)cc2)c1 | 7.8 | 
6 | Nc1nccc2ccc(OCC(c3ccccc3)N3Cc4cc(-c5ccccc5S(N)(=O)=O)ccc4C3=O)cc12 (stereo not given) | 623 | 
7 | Nc1nccc2ccc(OCC(Cc3ccccc3)N3Cc4cc(-c5ccccc5S(N)(=O)=O)ccc4C3=O)cc12 (stereo not given) | 226 | 
8 | N=C(N)c1cccc(OCCN(Cc2ccccc2)C(=O)c2ccc(-c3ccccc3S(N)(=O)=O)cc2)c1 | 14 | 
9 | N=C(N)c1cccc(Oc2ccccc2NC(=O)c2ccc(-c3ccccc3S(N)(=O)=O)cc2)c1 | 3.6 | inhibition in vivo at 2 mg/kg [3]: 41%; IC50 [4]: 970 nM; IC50 [5]: > 11 µM; IC50 [6]: 250 nM; IC50 [7]: > 181 µM; IC50 [8]: 18 µM; IC50 [9]: 43 µM
10 | N=C(N)c1cccc(Oc2cc([N+](=O)[O-])ccc2C(=O)Nc2ccc(-c3ccccc3S(N)(=O)=O)cc2)c1 | 4.8 | bioavailability [1]: 0.3%
11 | N=C(N)c1cccc(Oc2cc(N)ccc2C(=O)Nc2ccc(-c3ccccc3S(N)(=O)=O)cc2)c1 | 19 | 
12 | N=C(N)c1cccc(OCC(NC(=O)c2ccc(-c3ccccc3S(N)(=O)=O)cc2)c2ccccc2)c1 (stereo not given) | 3.4 | 
13 | N=C(N)c1cccc(Oc2ccc(Br)cc2C(=O)Nc2ccc(-c3ccccc3S(N)(=O)=O)cc2)c1 | 4.4 | 
14 | N=C(N)c1cccc(Oc2ccccc2C(=O)Nc2ccc(-c3ccccc3S(N)(=O)=O)cc2)c1 | 7.3 | 
15 | N=C(N)c1cccc(OCC(Cc2ccccc2)NC(=O)c2ccc(-c3ccccc3S(N)(=O)=O)cc2)c1 (stereo not given) | 5.6 | 
16 | N=C(N)c1cccc(OCCNC(=O)c2ccc(-c3ccccc3S(N)(=O)=O)cc2)c1 | 7.5 | IC50 [4]: 1200 nM; IC50 [5]: 321 µM; IC50 [6]: 2100 nM; IC50 [7]: 3.7 µM; IC50 [8]: 109 µM; IC50 [9]: 13 µM
17 | Nc1nccc2ccc(Oc3ccc(F)cc3NC(=O)c3ccc(-c4ccccc4S(N)(=O)=O)cc3)cc12 | 1320 | 
18 | N=C(N)c1cccc(OCCN2Cc3cc(-c4ccccc4S(N)(=O)=O)ccc3C2=O)c1 | 3.6 | 
19 | N=C(N)c1cccc(Oc2cc(Br)ccc2C(=O)Nc2ccc(-c3ccccc3S(N)(=O)=O)cc2)c1 | 1.2 | 
20 | N=C(N)c1cccc(Oc2cc(Cl)ccc2C(=O)Nc2ccc(-c3ccccc3S(N)(=O)=O)cc2)c1 | 1.5 | 
21 | COc1ccc(NC(=O)c2ccc(-c3ccccc3S(N)(=O)=O)cc2)c(Oc2cccc(C(=N)N)c2)c1 | 1.6 | 
22 | Cc1ccc(NC(=O)c2ccc(-c3ccccc3S(N)(=O)=O)cc2)c(Oc2cccc(C(=N)N)c2)c1 | 9.9 | 
23 | CC(COc1ccc2ccnc(N)c2c1)N1Cc2cc(-c3ccccc3S(N)(=O)=O)ccc2C1=O (stereo not given) | 25 | 

Row | SMILES | IC50 [2] [nM] | other results
24 | CN(C)c1ccc(Oc2cccc(C(=N)N)c2)c(C(=O)Nc2ccc(-c3ccccc3S(N)(=O)=O)cc2)c1 | 10 | 
25 | N=C(N)c1cccc(Oc2ccc([N+](=O)[O-])cc2C(=O)Nc2ccc(-c3ccccc3S(N)(=O)=O)cc2)c1 |  | IC50 [10]: 1.9 nM
26 | N=C(N)c1cccc(Oc2ccc(C(F)(F)F)cc2NC(=O)c2ccc(-c3ccccc3S(N)(=O)=O)cc2)c1 | 2.5 | 
27 | N=C(N)c1cccc(Oc2ccc(N)cc2C(=O)Nc2ccc(-c3ccccc3S(N)(=O)=O)cc2)c1 | 12 | 
28 | N=C(N)c1cccc(Oc2ccc(Br)cc2NC(=O)c2ccc(-c3ccccc3S(N)(=O)=O)cc2)c1 | 1.6 | 
29 | CS(=O)(=O)c1ccc(Oc2ccc3ccnc(N)c3c2)c(NC(=O)c2ccc(-c3ccccc3S(N)(=O)=O)cc2)c1 | 6060 | 
30 | CC(=O)Nc1ccc(C(=O)Nc2ccc(-c3ccccc3S(N)(=O)=O)cc2)c(Oc2cccc(C(=N)N)c2)c1 | 61 | 
31 | Nc1nccc2ccc(OCCN3Cc4cc(-c5ccccc5S(N)(=O)=O)ccc4C3=O)cc12 | 22 | bioavailability [11]: < 5%
32 | CS(=O)(=O)Nc1ccc(Oc2cccc(C(=N)N)c2)c(C(=O)Nc2ccc(-c3ccccc3S(N)(=O)=O)cc2)c1 | 5.4 | 
33 | N=C(N)c1cccc(OCCN(CC(=O)O)C(=O)c2ccc(-c3ccccc3S(N)(=O)=O)cc2)c1 | 34 | 
34 | CC(COc1cccc(C(=N)N)c1)NC(=O)c1ccc(-c2ccccc2S(N)(=O)=O)cc1 (stereo not given) | 16 | 
35 | Nc1nccc2ccc(Oc3ccc(C(F)(F)F)cc3NC(=O)c3ccc(-c4ccccc4S(N)(=O)=O)cc3)cc12 | 1810 | 
36 | N=C(N)c1cccc(OCCN(Cc2cccnc2)C(=O)c2ccc(-c3ccccc3S(N)(=O)=O)cc2)c1 | 11 | 
37 | N=C(N)c1cccc(Oc2cc(Cl)ccc2NC(=O)c2ccc(-c3ccccc3S(N)(=O)=O)cc2)c1 | 1.6 | 
38 | N=C(N)c1cccc(Oc2ccc(F)cc2NC(=O)c2ccc(-c3ccccc3S(N)(=O)=O)cc2)c1 | 4.5 | 
39 | N=C(N)c1cccc(Oc2cc(O)ccc2NC(=O)c2ccc(-c3ccccc3S(N)(=O)=O)cc2)c1 | 3.9 | 
40 | Nc1nccc2ccc(Oc3ccccc3NC(=O)c3ccc(-c4ccccc4S(N)(=O)=O)cc3)cc12 | 646 | 
41 | COC(=O)CN(CCOc1cccc(C(=N)N)c1)C(=O)c1ccc(-c2ccccc2S(N)(=O)=O)cc1 | 13 | 
42 | CN(C)c1ccc(C(=O)Nc2ccc(-c3ccccc3S(N)(=O)=O)cc2)c(Oc2cccc(C(=N)N)c2)c1 | 16 | 
43 | COC(=O)c1ccc(Oc2cccc(C(=N)N)c2)c(NC(=O)c2ccc(-c3ccccc3S(N)(=O)=O)cc2)c1 | 2.5 | 
44 | CNc1ccc(C(=O)Nc2ccc(-c3ccccc3S(N)(=O)=O)cc2)c(Oc2cccc(C(=N)N)c2)c1 | 12 | 
45 | CS(=O)(=O)c1ccc(Oc2cccc(C(=N)N)c2)c(NC(=O)c2ccc(-c3ccccc3S(N)(=O)=O)cc2)c1 | 1.8 | 
